Data reported in ChEMBL document CHEMBL4804286, “3-amino-4-(4-(4 (dimethylcarbamoyl) phenyl)-1,4-diazepan-1-yl) thieno [2,3-b] pyridine-2-carboxamide for use in cancer therapy and formulations comprising the same” (2020).
Several values for one entry are separate records, joined by “and”; a condition that tells them apart may be missing. Equal values may be shown once. Activity calls are given as the source filed them. The calls are words filed in the database; no cut-off is given here.

What was measured:
[1] = test system: Tyrosine-protein kinase ABL1 (Homo sapiens), P00519 [T315I]; assay: Inhibition of phosphorylated human ABL1 T315I mutant assessed as percent of control at 2000 nM by KINOMEscan assay relative to control; set-up: scale not given: the % may be the effect or the level left
[2] = target: Activin receptor type-2B (Homo sapiens) (UniProt Q13705); assay: Inhibition of human ACVR2B assessed as percent of control at 2000 nM by KINOMEscan assay relative to control; set-up: scale not given: the % may be the effect or the level left
[3] = target: Tyrosine-protein kinase Blk (Homo sapiens) (UniProt P51451); assay: Inhibition of human BLK assessed as percent of control at 2000 nM by KINOMEscan assay relative to control; set-up: scale not given: the % may be the effect or the level left
[4] = target: Cyclin-dependent kinase 8 (Homo sapiens) (UniProt P49336); assay: Inhibition of human CDK8 assessed as percent of control at 2000 nM by KINOMEscan assay relative to control; set-up: scale not given: the % may be the effect or the level left; conditions: INHIBITOR
Chain of Cyclin-dependent kinase 8 (Homo sapiens) (P49336 whole entry, canonical isoform): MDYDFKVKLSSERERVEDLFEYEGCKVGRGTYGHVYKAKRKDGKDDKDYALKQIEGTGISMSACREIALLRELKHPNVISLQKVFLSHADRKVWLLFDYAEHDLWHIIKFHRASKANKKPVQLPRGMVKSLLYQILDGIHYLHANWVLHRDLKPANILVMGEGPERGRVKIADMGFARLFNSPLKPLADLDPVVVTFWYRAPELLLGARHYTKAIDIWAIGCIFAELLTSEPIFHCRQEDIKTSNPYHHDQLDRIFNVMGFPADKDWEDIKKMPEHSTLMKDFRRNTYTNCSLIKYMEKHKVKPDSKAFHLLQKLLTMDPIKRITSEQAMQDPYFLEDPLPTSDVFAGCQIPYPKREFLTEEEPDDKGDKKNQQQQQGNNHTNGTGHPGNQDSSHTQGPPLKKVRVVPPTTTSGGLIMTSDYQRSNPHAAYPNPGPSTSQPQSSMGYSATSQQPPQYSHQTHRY

[5] = target: Casein kinase I isoform gamma-3 (Homo sapiens) (UniProt Q9Y6M4); assay: Inhibition of human CSNK1G3 assessed as percent of control at 2000 nM by KINOMEscan assay relative to control; set-up: scale not given: the % may be the effect or the level left
[6] = target: Serine/threonine-protein kinase DCLK2 (Homo sapiens) (UniProt Q8N568); assay: Inhibition of human DCAMKL2 assessed as percent of control at 2000 nM by KINOMEscan assay relative to control; set-up: scale not given: the % may be the effect or the level left
[7] = target: Serine/threonine-protein kinase 17B (Homo sapiens) (UniProt O94768); assay: Inhibition of human DRAK2 assessed as percent of control at 2000 nM by KINOMEscan assay relative to control; set-up: scale not given: the % may be the effect or the level left
[8] = test system: Epidermal growth factor receptor (Homo sapiens), P00533 [G719C]; assay: Inhibition of human EGFR G719C mutant assessed as percent of control at 2000 nM by KINOMEscan assay relative to control; set-up: scale not given: the % may be the effect or the level left
[9] = target: Ephrin type-A receptor 2 (Homo sapiens) (UniProt P29317); assay: Inhibition of human EPHA2 assessed as percent of control at 2000 nM by KINOMEscan assay relative to control; set-up: scale not given: the % may be the effect or the level left
[10] = target: Ephrin type-A receptor 4 (Homo sapiens) (UniProt P54764); assay: Inhibition of human EPHA4 assessed as percent of control at 2000 nM by KINOMEscan assay relative to control; set-up: scale not given: the % may be the effect or the level left
[11] = target: Vascular endothelial growth factor receptor 1 (Homo sapiens) (UniProt P17948); assay: Inhibition of human FLT1 assessed as percent of control at 2000 nM by KINOMEscan assay relative to control; set-up: scale not given: the % may be the effect or the level left
[12] = target: Microtubule-associated serine/threonine-protein kinase 1 (Homo sapiens) (UniProt Q9Y2H9); assay: Inhibition of human MAST1 assessed as percent of control at 2000 nM by KINOMEscan assay relative to control; set-up: scale not given: the % may be the effect or the level left
[13] = target: MAP kinase-interacting serine/threonine-protein kinase 1 (Homo sapiens) (UniProt Q9BUB5); assay: Inhibition of human MKNK1 assessed as percent of control at 2000 nM by KINOMEscan assay relative to control; set-up: scale not given: the % may be the effect or the level left
Chain of MAP kinase-interacting serine/threonine-protein kinase 1 (Homo sapiens) (Q9BUB5 whole entry, looked up): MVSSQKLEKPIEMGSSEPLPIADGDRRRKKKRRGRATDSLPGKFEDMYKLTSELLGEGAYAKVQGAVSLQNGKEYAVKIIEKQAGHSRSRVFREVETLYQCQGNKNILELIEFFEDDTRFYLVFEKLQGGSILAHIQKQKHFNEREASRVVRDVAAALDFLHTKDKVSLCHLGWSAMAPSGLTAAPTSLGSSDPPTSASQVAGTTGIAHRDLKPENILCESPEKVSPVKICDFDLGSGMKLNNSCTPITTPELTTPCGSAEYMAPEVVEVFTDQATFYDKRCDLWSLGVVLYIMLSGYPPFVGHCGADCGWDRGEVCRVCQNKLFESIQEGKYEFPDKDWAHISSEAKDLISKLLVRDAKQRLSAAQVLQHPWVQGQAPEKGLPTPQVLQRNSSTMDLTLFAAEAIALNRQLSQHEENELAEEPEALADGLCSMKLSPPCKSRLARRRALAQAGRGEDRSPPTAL

[14] = target: Muscle, skeletal receptor tyrosine-protein kinase (Homo sapiens) (UniProt O15146); assay: Inhibition of human MUSK assessed as percent of control at 2000 nM by KINOMEscan assay relative to control; set-up: scale not given: the % may be the effect or the level left
[15] = target: Serine/threonine-protein kinase Nek2 (Homo sapiens) (UniProt P51955); assay: Inhibition of human NEK2 assessed as percent of control at 2000 nM by KINOMEscan assay relative to control; set-up: scale not given: the % may be the effect or the level left
Chain of Serine/threonine-protein kinase Nek2 (Homo sapiens) (P51955 whole entry): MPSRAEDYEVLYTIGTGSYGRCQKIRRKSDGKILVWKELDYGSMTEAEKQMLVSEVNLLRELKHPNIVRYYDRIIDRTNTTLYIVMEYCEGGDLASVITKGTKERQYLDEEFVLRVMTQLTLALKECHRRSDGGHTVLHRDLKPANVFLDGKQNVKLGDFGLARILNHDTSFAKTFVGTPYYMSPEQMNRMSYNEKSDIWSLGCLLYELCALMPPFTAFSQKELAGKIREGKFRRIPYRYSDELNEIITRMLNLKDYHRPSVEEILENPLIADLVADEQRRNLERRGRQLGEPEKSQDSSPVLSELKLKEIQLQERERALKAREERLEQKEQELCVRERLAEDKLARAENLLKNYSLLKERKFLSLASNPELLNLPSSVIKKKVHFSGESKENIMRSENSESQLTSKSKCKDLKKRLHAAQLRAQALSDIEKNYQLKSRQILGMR

[16] = target: Serine/threonine-protein kinase Nek5 (Homo sapiens) (UniProt Q6P3R8); assay: Inhibition of human NEK5 assessed as percent of control at 2000 nM by KINOMEscan assay relative to control; set-up: scale not given: the % may be the effect or the level left
[17] = target: Serine/threonine-protein kinase Nek6 (Homo sapiens) (UniProt Q9HC98); assay: Inhibition of human NEK6 assessed as percent of control at 2000 nM by KINOMEscan assay relative to control; set-up: scale not given: the % may be the effect or the level left
[18] = target: Serine/threonine-protein kinase Nek7 (Homo sapiens) (UniProt Q8TDX7); assay: Inhibition of human NEK7 assessed as percent of control at 2000 nM by KINOMEscan assay relative to control; set-up: scale not given: the % may be the effect or the level left
[19] = target: 3-phosphoinositide-dependent protein kinase 1 (Homo sapiens) (UniProt O15530); assay: Inhibition of human PDPK1 assessed as percent of control at 2000 nM by KINOMEscan assay relative to control; set-up: scale not given: the % may be the effect or the level left
Chain of 3-phosphoinositide-dependent protein kinase 1 (Homo sapiens) (O15530 whole entry, the tested form may be a part): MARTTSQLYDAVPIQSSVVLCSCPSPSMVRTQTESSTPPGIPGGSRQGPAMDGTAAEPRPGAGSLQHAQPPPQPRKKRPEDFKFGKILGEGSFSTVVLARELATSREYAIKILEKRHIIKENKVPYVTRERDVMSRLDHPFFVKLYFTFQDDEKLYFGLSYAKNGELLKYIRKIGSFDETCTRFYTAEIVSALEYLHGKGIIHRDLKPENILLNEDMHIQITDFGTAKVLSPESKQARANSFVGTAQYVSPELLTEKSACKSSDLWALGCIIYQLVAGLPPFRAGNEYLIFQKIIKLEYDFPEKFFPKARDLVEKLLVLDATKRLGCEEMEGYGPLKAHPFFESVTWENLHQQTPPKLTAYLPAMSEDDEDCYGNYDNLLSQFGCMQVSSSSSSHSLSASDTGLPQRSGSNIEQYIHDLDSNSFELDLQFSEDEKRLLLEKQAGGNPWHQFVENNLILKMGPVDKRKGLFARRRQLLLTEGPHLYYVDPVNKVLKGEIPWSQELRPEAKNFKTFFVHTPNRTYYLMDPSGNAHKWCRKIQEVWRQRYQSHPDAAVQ

[20] = target: Phosphatidylinositol 3-kinase C2 domain-containing subunit gamma (Homo sapiens) (UniProt O75747); assay: Inhibition of human PIK3C2G assessed as percent of control at 2000 nM by KINOMEscan assay relative to control; set-up: scale not given: the % may be the effect or the level left
[21] = target: Phosphatidylinositol 4,5-bisphosphate 3-kinase catalytic subunit gamma isoform (Homo sapiens) (UniProt P48736); assay: Inhibition of human PIK3CG assessed as percent of control at 2000 nM by KINOMEscan assay relative to control; set-up: scale not given: the % may be the effect or the level left
[22] = target: Phosphatidylinositol 5-phosphate 4-kinase type-2 gamma (Homo sapiens) (UniProt Q8TBX8); assay: Inhibition of human PIP5K2C assessed as percent of control at 2000 nM by KINOMEscan assay relative to control; set-up: scale not given: the % may be the effect or the level left
[23] = target: Serine/threonine-protein kinase D1 (Homo sapiens) (UniProt Q15139); assay: Inhibition of human PRKD1 assessed as percent of control at 2000 nM by KINOMEscan assay relative to control; set-up: scale not given: the % may be the effect or the level left
Chain of Serine/threonine-protein kinase D1 (Homo sapiens) (Q15139 whole entry): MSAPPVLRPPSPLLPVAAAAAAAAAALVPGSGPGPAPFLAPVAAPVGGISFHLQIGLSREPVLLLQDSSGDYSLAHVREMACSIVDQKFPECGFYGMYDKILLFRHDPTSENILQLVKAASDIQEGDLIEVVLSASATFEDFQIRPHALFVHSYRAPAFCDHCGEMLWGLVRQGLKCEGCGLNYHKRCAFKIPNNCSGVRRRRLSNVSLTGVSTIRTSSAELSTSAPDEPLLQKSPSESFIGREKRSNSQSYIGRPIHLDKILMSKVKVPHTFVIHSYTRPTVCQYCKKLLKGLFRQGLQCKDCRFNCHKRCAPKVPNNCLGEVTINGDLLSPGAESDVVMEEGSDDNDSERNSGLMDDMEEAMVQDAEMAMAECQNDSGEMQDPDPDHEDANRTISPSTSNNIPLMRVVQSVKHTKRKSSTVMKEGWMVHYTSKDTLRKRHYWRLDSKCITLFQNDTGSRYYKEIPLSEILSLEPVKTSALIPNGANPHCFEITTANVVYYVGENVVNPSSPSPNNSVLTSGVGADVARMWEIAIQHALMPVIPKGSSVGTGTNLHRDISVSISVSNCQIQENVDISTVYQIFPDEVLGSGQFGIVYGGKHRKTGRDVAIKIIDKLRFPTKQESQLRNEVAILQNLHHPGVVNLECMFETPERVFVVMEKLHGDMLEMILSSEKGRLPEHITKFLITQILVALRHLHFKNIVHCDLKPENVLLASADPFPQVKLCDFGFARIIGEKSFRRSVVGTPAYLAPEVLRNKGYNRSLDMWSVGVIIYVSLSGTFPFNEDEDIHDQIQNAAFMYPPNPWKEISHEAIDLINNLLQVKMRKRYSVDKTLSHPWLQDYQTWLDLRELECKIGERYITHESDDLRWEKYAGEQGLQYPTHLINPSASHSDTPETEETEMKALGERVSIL

[24] = test system: Proto-oncogene tyrosine-protein kinase receptor Ret (Homo sapiens), P07949 [V804L]; assay: Inhibition of human RET V804L mutant assessed as percent of control at 2000 nM by KINOMEscan assay relative to control; set-up: scale not given: the % may be the effect or the level left
Chain of Proto-oncogene tyrosine-protein kinase receptor Ret (Homo sapiens), P07949 [V804L] (P07949 whole entry V804L): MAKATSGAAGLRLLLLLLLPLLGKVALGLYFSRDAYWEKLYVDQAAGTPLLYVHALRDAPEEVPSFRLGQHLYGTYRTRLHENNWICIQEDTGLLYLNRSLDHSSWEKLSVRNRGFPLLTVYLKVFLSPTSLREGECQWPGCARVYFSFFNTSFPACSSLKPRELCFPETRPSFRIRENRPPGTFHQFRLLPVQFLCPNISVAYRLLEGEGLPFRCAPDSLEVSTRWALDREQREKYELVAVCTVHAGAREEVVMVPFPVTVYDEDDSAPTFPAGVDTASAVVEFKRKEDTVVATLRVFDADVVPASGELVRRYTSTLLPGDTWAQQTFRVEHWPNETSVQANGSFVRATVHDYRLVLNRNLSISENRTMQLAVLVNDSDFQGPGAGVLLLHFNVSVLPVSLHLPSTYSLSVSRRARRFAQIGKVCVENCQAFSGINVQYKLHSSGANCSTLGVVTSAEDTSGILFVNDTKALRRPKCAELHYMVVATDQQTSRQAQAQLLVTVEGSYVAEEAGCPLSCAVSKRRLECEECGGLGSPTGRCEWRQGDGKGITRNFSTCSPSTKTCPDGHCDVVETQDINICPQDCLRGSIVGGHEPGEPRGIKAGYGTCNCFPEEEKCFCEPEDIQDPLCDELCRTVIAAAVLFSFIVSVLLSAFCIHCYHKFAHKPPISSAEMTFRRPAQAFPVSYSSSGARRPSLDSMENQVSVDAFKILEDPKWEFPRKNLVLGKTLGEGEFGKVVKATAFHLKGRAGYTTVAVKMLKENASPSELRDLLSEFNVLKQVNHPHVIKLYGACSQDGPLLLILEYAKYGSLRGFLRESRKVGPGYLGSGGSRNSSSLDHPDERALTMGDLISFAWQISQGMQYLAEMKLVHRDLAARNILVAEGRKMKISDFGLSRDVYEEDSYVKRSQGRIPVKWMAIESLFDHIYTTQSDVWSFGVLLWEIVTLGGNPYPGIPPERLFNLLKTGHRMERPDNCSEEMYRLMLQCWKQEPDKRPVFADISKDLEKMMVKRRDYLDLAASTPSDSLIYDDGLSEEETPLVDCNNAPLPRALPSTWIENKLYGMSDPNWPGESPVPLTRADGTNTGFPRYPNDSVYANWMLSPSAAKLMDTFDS

[25] = target: Serine/threonine-protein kinase RIO3 (Homo sapiens) (UniProt O14730); assay: Inhibition of human RIOK3 assessed as percent of control at 2000 nM by KINOMEscan assay relative to control; set-up: scale not given: the % may be the effect or the level left
Chain of Serine/threonine-protein kinase RIO3 (Homo sapiens) (O14730 whole entry): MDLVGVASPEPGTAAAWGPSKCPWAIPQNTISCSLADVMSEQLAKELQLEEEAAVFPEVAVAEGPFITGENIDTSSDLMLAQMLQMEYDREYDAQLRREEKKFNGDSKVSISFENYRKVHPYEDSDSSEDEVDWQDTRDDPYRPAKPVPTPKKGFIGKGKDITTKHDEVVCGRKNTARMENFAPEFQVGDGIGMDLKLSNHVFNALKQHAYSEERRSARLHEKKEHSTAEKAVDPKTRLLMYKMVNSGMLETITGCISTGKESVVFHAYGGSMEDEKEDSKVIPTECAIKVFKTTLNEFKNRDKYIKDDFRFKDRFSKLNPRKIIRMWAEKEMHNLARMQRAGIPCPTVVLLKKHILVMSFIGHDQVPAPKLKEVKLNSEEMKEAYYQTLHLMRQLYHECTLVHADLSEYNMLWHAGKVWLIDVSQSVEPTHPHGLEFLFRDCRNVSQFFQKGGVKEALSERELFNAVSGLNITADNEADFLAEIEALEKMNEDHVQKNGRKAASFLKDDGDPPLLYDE

[26] = target: Proto-oncogene tyrosine-protein kinase ROS (Homo sapiens) (UniProt P08922); assay: Inhibition of human ROS1 assessed as percent of control at 2000 nM by KINOMEscan assay relative to control; set-up: scale not given: the % may be the effect or the level left
[27] = target: Tyrosine-protein kinase Srms (Homo sapiens) (UniProt Q9H3Y6); assay: Inhibition of human SRMS assessed as percent of control at 2000 nM by KINOMEscan assay relative to control; set-up: scale not given: the % may be the effect or the level left
Chain of Tyrosine-protein kinase Srms (Homo sapiens) (Q9H3Y6 whole entry): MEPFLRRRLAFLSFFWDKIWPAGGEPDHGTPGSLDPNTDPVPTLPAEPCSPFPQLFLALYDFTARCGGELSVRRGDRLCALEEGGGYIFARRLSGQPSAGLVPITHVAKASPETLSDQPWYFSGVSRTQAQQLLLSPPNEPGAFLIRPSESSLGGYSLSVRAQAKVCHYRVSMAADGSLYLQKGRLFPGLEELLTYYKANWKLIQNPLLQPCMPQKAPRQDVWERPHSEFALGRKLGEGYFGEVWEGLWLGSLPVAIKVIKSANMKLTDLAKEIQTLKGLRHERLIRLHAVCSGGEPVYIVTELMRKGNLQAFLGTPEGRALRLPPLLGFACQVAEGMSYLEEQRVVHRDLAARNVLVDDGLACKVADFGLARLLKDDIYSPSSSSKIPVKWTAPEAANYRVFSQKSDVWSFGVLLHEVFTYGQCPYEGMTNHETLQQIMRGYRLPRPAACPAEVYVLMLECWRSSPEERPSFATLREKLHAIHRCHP

[28] = target: Serine/threonine-protein kinase 36 (Homo sapiens) (UniProt Q9NRP7); assay: Inhibition of human STK36 assessed as percent of control at 2000 nM by KINOMEscan assay relative to control; set-up: scale not given: the % may be the effect or the level left
[29] = target: Tyrosine-protein kinase receptor TYRO3 (Homo sapiens) (UniProt Q06418); assay: Inhibition of human TYRO3 assessed as percent of control at 2000 nM by KINOMEscan assay relative to control; set-up: scale not given: the % may be the effect or the level left
[30] = test system: CWR22R; assay: Antitumor activity against human 22Rv1 cells expressing AR-V7 xenografted in male nude mouse assessed as suppression of tumor growth at 50 mg/kg, administered twice a day for 40 days; assay type: functional, organism-based
[31] = target: Cyclin-dependent kinase 8 (Homo sapiens) (UniProt P49336); conditions: INHIBITOR, dose 2000.0 nM
Description: Inhibition of human CDK8 at 2000 nM by KINOMEscan assay

CN(C)C(=O)c1ccc(N2CCCN(c3ccnc4sc(C(N)=O)c(N)c34)CC2)cc1
Activity [1]: 100% and 85%
Activity [2]: 100% and 86%
Activity [3]: 100% and 92%
Activity [4]: 2.6% and 0.25%
Activity [5]: 95% and 80%
Activity [6]: 100%
Activity [7]: 100% and 87%
Activity [8]: 97% and 100%
Activity [9]: 95% and 100%
Activity [10]: 100%
Activity [11]: 100%
Activity [12]: 92%
Activity [13]: 94% and 79%
Activity [14]: 94% and 82%
Activity [15]: 95%
Activity [16]: 94% and 100%
Activity [17]: 92% and 100%
Activity [18]: 100% and 86%
Activity [19]: 100% and 96%
Activity [20]: 94% and 82%
Activity [21]: 79% and 76%
Activity [22]: 80% and 64%
Activity [23]: 88% and 92%
Activity [24]: 100%
Activity [25]: 100% and 95%
Activity [26]: 95% and 100%
Activity [27]: 81% and 93%
Activity [28]: 100%
Activity [29]: 100%
Activity [30]: Active
inhibition [31]: > 65%
